# Measured values: ChEMBL document CHEMBL1201861, “Genomics of Drug Sensitity in Cancer screening data, Wellcome Trust Sanger Institute”
# pIC50: −log10 of the molar value.
# Experiments:
# Experiment in all cases: cells
# COLO-824 = format: functional, cell-based, Homo sapiens; details: Homo sapiens, COLO-824
# Description: SANGER: Inhibition of human COLO-824 cell growth in a cell viability assay.
# CTB-1 = format: functional, cell-based, Homo sapiens; details: Homo sapiens, CTB-1
# Description: SANGER: Inhibition of human CTB-1 cell growth in a cell viability assay.
# CW-2 = format: functional, cell-based, Homo sapiens; details: Homo sapiens, CW-2;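 further: growth inhibition of CW-2 cells, read out by a cell viability assay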
# Description: SANGER: Inhibition of human CW-2 cell growth in a cell viability assay.
# D-263MG = format: functional, cell-based, Homo sapiens; details: Homo sapiens, D-263MG
# Description: SANGER: Inhibition of human D-263MG cell growth in a cell viability assay.
# DMS-79 = format: functional, cell-based, Homo sapiens; details: Homo sapiens, DMS-79;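 further: growth inhibition measured with a cell viability assay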
# Description: SANGER: Inhibition of human DMS-79 cell growth in a cell viability assay.
# EW-11 = format: functional, cell-based, Homo sapiens; details: Homo sapiens, EW-11;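 further: growth inhibition of human EW-11 cells, measured with a cell viability assay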
# Description: SANGER: Inhibition of human EW-11 cell growth in a cell viability assay.
# GOTO = format: functional, cell-based, Homo sapiens; details: Homo sapiens, GOTO;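 further: growth inhibition of GOTO cells, read out by a cell viability assay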
# Description: SANGER: Inhibition of human GOTO cell growth in a cell viability assay.
# HAL-01 = format: functional, cell-based, Homo sapiens; details: Homo sapiens, HAL-01;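 further: growth inhibition of human HAL-01 cells, read out with a cell viability assay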
# Description: SANGER: Inhibition of human HAL-01 cell growth in a cell viability assay.
# HCC1187 = format: functional, cell-based, Homo sapiens; details: Homo sapiens, HCC1187;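 further: growth inhibition of HCC1187 cells, read out with a cell viability assay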
# Description: SANGER: Inhibition of human HCC1187 cell growth in a cell viability assay.
# HuTu80 = format: functional, cell-based, Homo sapiens, HUTU-80; details: Homo sapiens, HuTu80;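 further: growth inhibition of HuTu80 human cells, determined with a cell viability readout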
# Description: SANGER: Inhibition of human HUTU-80 cell growth in a cell viability assay.
# IA-LM = format: functional, cell-based, Homo sapiens; details: Homo sapiens, IA-LM;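 further: cell viability assay measuring growth inhibition of human IA-LM cells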
# Description: SANGER: Inhibition of human IA-LM cell growth in a cell viability assay.
# IST-MES1 = format: functional, cell-based, Homo sapiens; details: Homo sapiens, IST-MES1;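 further: growth inhibition of IST-MES1 cells, measured with a cell viability assay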
# Description: SANGER: Inhibition of human IST-MES1 cell growth in a cell viability assay.
# J-RT3-T3-5 = format: functional, cell-based, Homo sapiens; details: Homo sapiens, J-RT3-T3-5;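 further: cell viability assay measuring growth inhibition of human J-RT3-T3-5 cells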
# Description: SANGER: Inhibition of human J-RT3-T3-5 cell growth in a cell viability assay.
# JAR = format: functional, cell-based, Homo sapiens; details: Homo sapiens, JAR;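 further: growth inhibition of human JAR cells determined with a cell viability assay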
# Description: SANGER: Inhibition of human JAR cell growth in a cell viability assay.
# KARPAS-45 = format: functional, cell-based, Homo sapiens; details: Homo sapiens, KARPAS-45;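 further: inhibition of cell line growth, read out through a viability assay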
# Description: SANGER: Inhibition of human KARPAS-45 cell growth in a cell viability assay.
# KLE = format: functional, cell-based, Homo sapiens; details: Homo sapiens, KLE;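 further: growth inhibition of human KLE cells, read out with a cell viability assay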
# Description: SANGER: Inhibition of human KLE cell growth in a cell viability assay.
# KY821 = format: functional, cell-based, Homo sapiens; details: Homo sapiens, KY821;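 further: growth inhibition of human KY821 cells, read out by a cell viability assay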
# Description: SANGER: Inhibition of human KY821 cell growth in a cell viability assay.
# L-363 = format: functional, cell-based, Homo sapiens; details: Homo sapiens, L-363
# Description: SANGER: Inhibition of human L-363 cell growth in a cell viability assay.
# LB373-MEL-D = format: functional, cell-based, Homo sapiens; details: Homo sapiens, LB373-MEL-D;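 further: growth inhibition of the cell line, read out in a cell viability assay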
# Description: SANGER: Inhibition of human LB373-MEL-D cell growth in a cell viability assay.
# LNCaP-Clone-FGC = format: functional, cell-based, Homo sapiens; details: Homo sapiens, LNCaP-Clone-FGC
# Description: SANGER: Inhibition of human LNCaP-Clone-FGC cell growth in a cell viability assay.
# LS-123 = format: functional, cell-based, Homo sapiens; details: Homo sapiens, LS-123
# Description: SANGER: Inhibition of human LS-123 cell growth in a cell viability assay.
# LU-139 = format: functional, cell-based, Homo sapiens; details: Homo sapiens, LU-139
# Description: SANGER: Inhibition of human LU-139 cell growth in a cell viability assay.
# MEG-01 = format: functional, cell-based, Homo sapiens; details: Homo sapiens, MEG-01;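 further: growth inhibition of MEG-01 cells, read out by a cell viability assay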
# Description: SANGER: Inhibition of human MEG-01 cell growth in a cell viability assay.
# MFM-223 = format: functional, cell-based, Homo sapiens; details: Homo sapiens, MFM-223
# Description: SANGER: Inhibition of human MFM-223 cell growth in a cell viability assay.
# ML-2 = format: functional, cell-based, Homo sapiens; details: Homo sapiens, ML-2;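 further: growth inhibition of ML-2 cells, measured with a cell viability readout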
# Description: SANGER: Inhibition of human ML-2 cell growth in a cell viability assay.
# MOLT-16 = format: functional, cell-based, Homo sapiens; details: Homo sapiens, MOLT-16;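 further: growth inhibition of human MOLT-16 cells, read out with a cell viability assay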
# Description: SANGER: Inhibition of human MOLT-16 cell growth in a cell viability assay.
# NB12 = format: functional, cell-based, Homo sapiens; details: Homo sapiens, NB12;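 further: growth inhibition of human NB12 cells, read out by a cell viability assay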
# Description: SANGER: Inhibition of human NB12 cell growth in a cell viability assay.
# NCI-H526 = format: functional, cell-based, Homo sapiens; details: Homo sapiens, NCI-H526;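 further: growth inhibition of the human NCI-H526 cell line, measured by a cell viability assay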
# Description: SANGER: Inhibition of human NCI-H526 cell growth in a cell viability assay.
# NCI-N87 = format: functional, cell-based, Homo sapiens; details: Homo sapiens, NCI-N87;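 further: growth inhibition of human NCI-N87 cells, read out with a cell viability assay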
# Description: SANGER: Inhibition of human NCI-N87 cell growth in a cell viability assay.
# SNU-5 = format: functional, cell-based, Homo sapiens; details: Homo sapiens, SNU-5;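 further: cell viability readout used to measure growth inhibition in human NCI-SNU-5 cells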
# Description: SANGER: Inhibition of human NCI-SNU-5 cell growth in a cell viability assay.
# NH-12 = format: functional, cell-based, Homo sapiens; details: Homo sapiens, NH-12;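 further: growth inhibition of NH-12 cells, read out with a cell viability assay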
# Description: SANGER: Inhibition of human NH-12 cell growth in a cell viability assay.
# NMC-G1 = format: functional, cell-based, Homo sapiens; details: Homo sapiens, NMC-G1;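 further: growth inhibition of the NMC-G1 cell line, measured with a cell viability read-out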
# Description: SANGER: Inhibition of human NMC-G1 cell growth in a cell viability assay.
# ONS-76 = format: functional, cell-based, Homo sapiens; details: Homo sapiens, ONS-76;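 further: growth inhibition of human ONS-76 cells, read out with a cell viability assay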
# Description: SANGER: Inhibition of human ONS-76 cell growth in a cell viability assay.
# RCC10RGB = format: functional, cell-based, Homo sapiens; details: Homo sapiens, RCC10RGB;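 further: growth inhibition of human RCC10RGB cells, read out by a cell viability assay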
# Description: SANGER: Inhibition of human RCC10RGB cell growth in a cell viability assay.
# RH-1 = format: functional, cell-based, Homo sapiens; details: Homo sapiens, RH-1;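 further: growth inhibition of human RH-1 cells, read out with a cell viability assay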
# Description: SANGER: Inhibition of human RH-1 cell growth in a cell viability assay.
# RPMI-8866 = format: functional, cell-based, Homo sapiens; details: Homo sapiens, RPMI-8866
# Description: SANGER: Inhibition of human RPMI-8866 cell growth in a cell viability assay.
# SK-N-FI = format: functional, cell-based, Homo sapiens; details: Homo sapiens, SK-N-FI;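 further: cell viability assay measuring growth inhibition of human SK-N-FI cells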
# Description: SANGER: Inhibition of human SK-N-FI cell growth in a cell viability assay.
# SK-NEP-1 = format: functional, cell-based, Homo sapiens; details: Homo sapiens, SK-NEP-1;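 further: growth inhibition of human SK-NEP-1 cells, read out by a cell viability assay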
# Description: SANGER: Inhibition of human SK-NEP-1 cell growth in a cell viability assay.
# SNU-C2B = format: functional, cell-based, Homo sapiens; details: Homo sapiens, SNU-C2B;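 further: cell viability readout used to measure compound-driven suppression of SNU-C2B cell proliferation, IC50 marking half-maximal growth inhibition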
# Description: SANGER: Inhibition of human SNU-C2B cell growth in a cell viability assay.
# TE-1 = format: functional, cell-based, Homo sapiens; details: Homo sapiens, TE-1;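 further: growth inhibition of the human TE-1 cell line, read out with a cell viability assay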
# Description: SANGER: Inhibition of human TE-1 cell growth in a cell viability assay.
# 8-MG-BA = format: functional, cell-based, Homo sapiens; details: Homo sapiens, 8-MG-BA;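 further: growth inhibition of 8-MG-BA cells, read out with a cell viability assay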
# Description: SANGER: Inhibition of human 8-MG-BA cell growth in a cell viability assay.
# BB65-RCC = format: functional, cell-based, Homo sapiens; details: Homo sapiens, BB65-RCC;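 further: growth inhibition of the cell line, measured with a cell viability assay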
# Description: SANGER: Inhibition of human BB65-RCC cell growth in a cell viability assay.
# BE-13 = format: functional, cell-based, Homo sapiens; details: Homo sapiens, BE-13;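 further: growth inhibition of human BE-13 cells, measured with a cell viability assay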
# Description: SANGER: Inhibition of human BE-13 cell growth in a cell viability assay.
# BV-173 = format: functional, cell-based, Homo sapiens; details: Homo sapiens, BV-173
# Description: SANGER: Inhibition of human BV-173 cell growth in a cell viability assay.
# Becker = format: functional, cell-based, Homo sapiens; details: Homo sapiens, Becker;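 further: growth inhibition of Becker cells, read out with a cell viability assay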
# Description: SANGER: Inhibition of human Becker cell growth in a cell viability assay.
# C8166 = format: functional, cell-based, Homo sapiens; details: Homo sapiens, C8166;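 further: growth inhibition of human C8166 cells measured by a cell viability assay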
# Description: SANGER: Inhibition of human C8166 cell growth in a cell viability assay.
# TE-6 = format: functional, cell-based, Homo sapiens; details: Homo sapiens, TE-6;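 further: growth inhibition of TE-6 cells, read out with a cell viability assay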
# Description: SANGER: Inhibition of human TE-6 cell growth in a cell viability assay.
# COLO-684 = format: functional, cell-based, Homo sapiens; details: Homo sapiens, COLO-684
# Description: SANGER: Inhibition of human COLO-684 cell growth in a cell viability assay.
compound,measurement,setting,value
Nc1ccn([C@@H]2O[C@H](CO)[C@@H](O)C2(F)F)c(=O)n1 [GEMCITABINE],pIC50,COLO-824,< 5.99
same,pIC50,CTB-1,7.27
same,pIC50,CW-2,< 5.99
same,pIC50,D-263MG,< 5.99
same,pIC50,DMS-79,< 5.99
same,pIC50,EW-11,6.36
same,pIC50,GOTO,< 5.99
same,pIC50,HAL-01,8.09
same,pIC50,HCC1187,< 5.99
same,pIC50,HuTu80,> 8.40
same,pIC50,IA-LM,8.23
same,pIC50,IST-MES1,6.11
same,pIC50,J-RT3-T3-5,7.17
same,pIC50,JAR,< 5.99
same,pIC50,KARPAS-45,< 5.99
same,pIC50,KLE,6.34
same,pIC50,KY821,< 5.99
same,pIC50,L-363,7.02
same,pIC50,LB373-MEL-D,< 5.99
same,pIC50,LNCaP-Clone-FGC,< 5.99
same,pIC50,LS-123,7.39
same,pIC50,LU-139,7.84
same,pIC50,MEG-01,8.90
same,pIC50,MFM-223,< 5.99
same,pIC50,ML-2,7.59
same,pIC50,MOLT-16,7.37
same,pIC50,NB12,6.81
same,pIC50,NCI-H526,6.96
same,pIC50,NCI-N87,6.48
same,pIC50,SNU-5,7.92
same,pIC50,NH-12,7.59
same,pIC50,NMC-G1,8.06
same,pIC50,ONS-76,8.06
same,pIC50,RCC10RGB,6.20
same,pIC50,RH-1,> 8.40
same,pIC50,RPMI-8866,7.02
same,pIC50,SK-N-FI,< 5.99
same,pIC50,SK-NEP-1,7.64
same,pIC50,SNU-C2B,< 5.99
same,pIC50,TE-1,< 5.99
same,pIC50,8-MG-BA,8.23
same,pIC50,BB65-RCC,> 8.40
same,pIC50,BE-13,8.28
same,pIC50,BV-173,7.76
same,pIC50,Becker,6.57
same,pIC50,C8166,7.88
same,pIC50,TE-6,6.60
same,pIC50,COLO-684,7.58
Oc1ccc2ccccc2c1SSc1c(O)ccc2ccccc12,pIC50,COLO-824,< 4.49
same,pIC50,CTB-1,4.90
same,pIC50,CW-2,< 4.49
same,pIC50,D-263MG,< 4.49
same,pIC50,DMS-79,< 4.49
same,pIC50,EW-11,< 4.49
same,pIC50,GOTO,< 4.49
same,pIC50,HAL-01,4.59
same,pIC50,HCC1187,< 4.49
same,pIC50,HuTu80,< 4.49
same,pIC50,IA-LM,< 4.49
same,pIC50,IST-MES1,< 4.49
same,pIC50,J-RT3-T3-5,< 4.49
same,pIC50,JAR,< 4.49
same,pIC50,KARPAS-45,4.89
same,pIC50,KLE,< 4.49
same,pIC50,KY821,< 4.49
same,pIC50,L-363,< 4.49
same,pIC50,LB373-MEL-D,< 4.49
same,pIC50,LNCaP-Clone-FGC,< 4.49
same,pIC50,LS-123,5.06
same,pIC50,LU-139,< 4.49
same,pIC50,MEG-01,< 4.49
same,pIC50,MFM-223,< 4.49
same,pIC50,ML-2,4.58
same,pIC50,MOLT-16,< 4.49
same,pIC50,NB12,< 4.49
same,pIC50,NCI-H526,< 4.49
same,pIC50,NCI-N87,< 4.49
same,pIC50,SNU-5,< 4.49
same,pIC50,NH-12,5.29
same,pIC50,NMC-G1,< 4.49
same,pIC50,ONS-76,< 4.49
same,pIC50,RCC10RGB,< 4.49
same,pIC50,RH-1,4.56
same,pIC50,RPMI-8866,< 4.49
same,pIC50,SK-N-FI,< 4.49
same,pIC50,SK-NEP-1,< 4.49
same,pIC50,SNU-C2B,< 4.49
same,pIC50,TE-1,< 4.49
same,pIC50,8-MG-BA,< 4.49
same,pIC50,BB65-RCC,< 4.49
same,pIC50,BE-13,< 4.49
same,pIC50,BV-173,< 4.49
same,pIC50,Becker,< 4.49
same,pIC50,C8166,< 4.49
same,pIC50,TE-6,< 4.49
same,pIC50,COLO-684,4.69
